These results are taken from publication PMC10461225, “Creation of a Peptide Antagonist of the GFRAL–RET Receptor Complex for the Treatment of GDF15-Induced Malaise” (Journal of Medicinal Chemistry, 2023).

Square brackets hold non-standard residues; d marks the D form. Ends that are not written are not given here. Peptide text beside a SMILES is read from it. PEG2‑C4‑alkyne‑biotin = PEG2-C4-alkyne-modified biotin; Lys(N3) = [N-]=[N+]=NCCCC[C@H](N)C(=O)O; K‑azido = azido-modified lysine

In series [1] the test system is Sprague–Dawley rats. As to the method:
In a follow-up experiment, we evaluated responses to the gold standard antiemetic Ondansetron alone or in combination with GRASP to determine whether the combination would enhance the efficacy of the former compound in preventing CINV in rats.
All systemic treatments were delivered by intraperitoneal (IP) injection.
Rats (n = 98, 300–330 g) received IP injections of GRASP (100 nmol/kg), Ondansetron (2 mg/kg), both GRASP and Ondansetron together, or saline control […] before systemic administration of cisplatin. Six hours later, rats received a second injection of GRASP or vehicle control. Food and kaolin intake were measured at 3, 6, and 24 h postinjection.
All data were expressed as means ± SEM.

Series [2] concerns the target GFRAL ECD (Homo sapiens) (UniProt Q6UXV0). As to conditions: cited from earlier work.
Series [3] deals with T1, Recombinant His-tagged human GFRAL (Ser19–Glu351) (human, UniProt Q6UXV0 19-351).
T1 construct: GDNF family receptor alpha-like (GFRAL), human, extracellular domain S19-E351 as defined by UniProt Q6UXV0; also called GFRAL–ECD; GFRAL (S19–E351); source: bought: ACRO Biosystems (GFA-H52H3), expressed in HEK293 cells
T1 sequence (looked up): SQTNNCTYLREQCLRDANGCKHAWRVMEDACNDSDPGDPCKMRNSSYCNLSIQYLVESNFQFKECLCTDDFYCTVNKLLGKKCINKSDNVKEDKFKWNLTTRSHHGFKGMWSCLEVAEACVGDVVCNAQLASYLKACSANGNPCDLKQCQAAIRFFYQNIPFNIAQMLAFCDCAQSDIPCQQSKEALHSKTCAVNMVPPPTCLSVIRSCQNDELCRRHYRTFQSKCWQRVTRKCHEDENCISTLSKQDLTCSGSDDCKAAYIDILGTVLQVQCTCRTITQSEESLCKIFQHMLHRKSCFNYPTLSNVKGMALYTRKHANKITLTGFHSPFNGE
Put plainly: SPR; biotin-GRASP immobilised on a streptavidin-coated biotin sensor (Nicoya OpenSPR); GFRAL-ECD (20, 100, 200, 600 nM), GDF15 (1 uM) or RET (0.29 uM) as analyte; HBSS pH 7.4; 1:1 fit with local Bmax (TraceDrawer). As to conditions: both partners purified. In general terms: SPR reads the build-up and loss of mass on a sensor chip optically.

Series [4] deals with T1, Recombinant His-tagged human GFRAL …. In words: SPR; GFRAL (S19-E351) immobilised by amine coupling (EDC/NHS) on a high-capacity carboxyl sensor (Nicoya OpenSPR); peptides or GDF15 as analyte; HBSS pH 7.4 running buffer without BSA; 20 uL/min. As to conditions: both partners purified.
The target in series [5] is T2, Full-length human GFRAL on stably transfected HEK293 cells (human, UniProt Q6UXV0 19-394).
T2 construct: GDNF family receptor alpha-like (GFRAL), human, full-length, overexpressed on HEK293 cells; also called GFRAL–HEK293 cells; GFRAL-expressing HEK293 cells; source: HEK293 cells stably overexpressing human GFRAL, bought: Creative Biogene (CSC-SC006226)
T2 sequence (looked up): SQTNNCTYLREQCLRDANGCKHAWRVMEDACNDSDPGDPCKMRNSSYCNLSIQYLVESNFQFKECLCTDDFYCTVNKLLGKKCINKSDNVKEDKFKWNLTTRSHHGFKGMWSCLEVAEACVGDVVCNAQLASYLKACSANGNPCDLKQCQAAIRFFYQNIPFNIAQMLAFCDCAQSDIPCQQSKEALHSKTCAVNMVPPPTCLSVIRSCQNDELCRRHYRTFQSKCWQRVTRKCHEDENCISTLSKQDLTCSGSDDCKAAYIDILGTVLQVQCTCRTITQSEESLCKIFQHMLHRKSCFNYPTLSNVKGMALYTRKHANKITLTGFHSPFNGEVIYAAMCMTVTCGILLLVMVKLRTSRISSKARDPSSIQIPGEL
In words: flow cytometry on cells; GRASPCy5 (0.1-1000 nM) in HBSS pH 7.4, 30 min at 37 °C, on HEK293 cells stably overexpressing full-length human GFRAL; untransfected HEK293 cells as control. As to conditions: one partner purified.

[6] abbreviates: GRASP 100 nmol/kg IP BID alone or with Ondansetron 2 mg/kg IP, no cisplatin.
The mark [7] stands for this setting: GRASP 100 nmol/kg IP BID, Ondansetron 2 mg/kg IP, cisplatin 6 mg/kg IP, n = 10–16 per group.

On to `CC[C@H](C)[C@H](NC(=O)[C@H](CC(C)C)NC(=O)[C@H](CCC(=O)O)NC(=O)[C@H](CCC(=O)O)NC(=O)[C@H](CCCCN=[N+]=[N-])NC(=O)[C@@H](N)[C@@H](C)O)C(=O)N[C@@H](Cc1c[nH]cn1)C(=O)N[C@@H](C)C(=O)N[C@@H](Cc1c[nH]cn1)C(=O)N[C@@H](C)C(=O)N[C@@H](CC(=O)O)C(=O)N1CCC[C@H]1C(=O)N[C@@H](CCSC)C(=O)N[C@H](C(=O)N[C@@H](CC(C)C)C(=O)N[C@H](C(=O)N[C@@H](CCC(N)=O)C(=O)N[C@@H](CCCCN)C(=O)N[C@H](C(=O)N[C@@H](CC(=O)O)C(=O)N[C@H](C(=O)NCC(=O)N[C@H](C(=O)N[C@@H](CO)C(=O)N[C@@H](CC(C)C)C(=O)N[C@@H](CCC(N)=O)C(=O)N[C@H](C(=O)N[C@@H](Cc1ccc(O)cc1)C(=O)N[C@@H](CC(=O)O)C(N)=O)[C@@H](C)O)C(C)C)[C@@H](C)O)[C@@H](C)O)[C@@H](C)CC)C(C)C` [GRASP] (H-T[Lys(N3)]EELIHAHADPMVLIQKTDTGVSLQTYD-NH2), for which, in series [1] (setting [6]), the “impact on food or kaolin intake in healthy rats” value is recorded as “had no impact on food or kaolin intake in healthy rats” and the “tolerability in healthy rats” value is recorded as “well-tolerated”. By Kd is commonly meant the concentration at which binding is half-saturated. On to GDF15 (from UniProt Q99988), for which, in series [2], the dissociation constant Kd is 1 nM. As for `Cc1nccn1CC1CCc2c(c3ccccc3n2C)C1=O` (centres unmarked) [Ondansetron], in series [1] (setting [7]), the “effect on cisplatin-induced anorexia” value was “Neither Ond (2 mg/kg of IP) nor GRASP (100 nmol/kg of IP [BID]) alone had any impact” and the “effect on cisplatin-induced kaolin intake” value was “significantly reduced cisplatin-induced kaolin intake”.

B1: Biotinylated GRASP (peptide)
peptide: T[K‑azido](PEG2‑C4‑alkyne‑biotin)EELIHAHADPMVLIQKTDTGVSLQTYD
notes: GRASP peptide as m1, biotin on the azido-lysine at position 2; Held on the sensor through biotin-streptavidin (His-tagged streptavidin on a biotin sensor); also called biotin-conjugated GRASP; biotin-GRASP; source: synthetic peptide, conjugated to PEG2-C4-alkyne biotin, RP-HPLC purified (95%)
B1: the Kd in series [3] is 74.1 nM.

B2: GRASP (K2-azido-modified 29-amino acid peptide) (peptide)
peptide: T[K‑azido]EELIHAHADPMVLIQKTDTGVSLQTYD
notes: designed peptide with GDF15-like loop regions; printed as T(K-azido)[residues removed]; In-house synthesis was on a Rink amide resin, which would give a C-terminal amide; also called GFRAL receptor antagonist; unlabeled GRASP; source: synthetic peptide (Genscript or in-house solid-phase synthesis), HPLC purified to >95%
Consider B2, for which the Kd in series [4] came out at 179000 nM.

B3: GRASPCy5 (peptide)
peptide: TKEELIHAHADPMVLIQKTDTGVSLQTYD
modifications: not fully specified (residue 2); printed as T(K-azido)EELIHAHADPMVLIQKTDTGVSLQTYD
notes: GRASP peptide as m1, sulfo-Cy5 on the azido-lysine at position 2; also called sulfo-Cy5 GRASP conjugate; GRASP(K2)–fluorophore conjugate; source: synthetic peptide, conjugated to DBCO-Cy5, RP-HPLC purified (95%)
In series [5], B3 yielded a Kd of 8.98 nM.
